The target of data set [1] is LRRK2 (Homo sapiens, UniProt Q5S007). The experiment in a line: Inhibition of recombinant human GST-tagged LRRK2 (970 to 2527 residues) expressed in baculovirus expression system using LRRKtide as substrate at 0.1 uM incubated for 60 mins by Adapta assay relative to control. Particulars: probe LRRKtide.
The species entered for data set [2] is Homo sapiens.
For data set [3], the target named is Receptor tyrosine-protein kinase erbB-2 (Homo sapiens) (UniProt P04626). Briefly: Inhibition of recombinant human His-tagged ERBB2 (676 to 1255 residues) expressed in baculovirus expression system using Tyr 06 as substrate at 0.1 uM incubated for 60 mins by Z'-Lyte assay relative to control.
The target of data set [4] is Serine/threonine-protein kinase B-raf (Homo sapiens) (UniProt P15056). Briefly: Inhibition of recombinant human GST-tagged full length BRAF expressed in baculovirus expression system using Ser/Thr 03 as substrate at 0.1 uM incubated for 60 mins by Z'-Lyte assay relative to control.
Data set [5] has as its target Myosin light chain kinase, smooth muscle (Homo sapiens) (UniProt Q15746). Briefly: Inhibition of tracer 236 binding to recombinant human GST-tagged MYLK (1428 to 1771 residues) expressed in baculovirus expression system at 0.1 uM incubated for 60 mins by Lanthascreen assay relative to control.
The target of data set [6] is Ephrin type-A receptor 4 (Homo sapiens) (UniProt P54764). Briefly: Inhibition of recombinant human GST-tagged EPHA4 (616 to 887 residues) expressed in baculovirus expression system using Tyr 02 as substrate at 0.1 uM incubated for 60 mins by Z'-Lyte assay relative to control.
Data set [7] deals with Janus Kinase (JAK) (Homo sapiens, UniProt P52333+P23458+O60674+P29597). The note with it: beas-2b.
Description: Inhibition of JAK in human BEAS-2B cells assessed as reduction in IL13-induced STAT6 phosphorylation incubated for 1 hr followed by IL13 addition and measured after 15 mins by immunofluorescence assay
The target in data set [8] is Calcium/calmodulin-dependent protein kinase type 1D (Homo sapiens) (UniProt Q8IU85). Briefly: Inhibition of recombinant human His-tagged full length CAMK1delta expressed in baculovirus expression system using Ser/Thr 25 as substrate at 0.1 uM incubated for 60 mins by Z'-Lyte assay relative to control.
Data set [9] has as its target Serine/threonine-protein kinase PAK 1 (Homo sapiens) (UniProt Q13153). Briefly: Inhibition of recombinant human GST-tagged full length PAK1 expressed in baculovirus expression system using Ser/Thr 19 as substrate at 0.1 uM incubated for 60 mins by Z'-lyte assay relative to control.
Data set [10] concerns the target Non-receptor tyrosine-protein kinase TYK2 (Homo sapiens) (UniProt P29597). Briefly: Inhibition of recombinant human N-terminal GST-tagged TYK2 (833 to 1187 residues) expressed in baculovirus expression system using Tyr 03 as substrate at 0.1 uM incubated for 60 mins by Z'-Lyte assay relative to control.
In data set [11] the target is Focal adhesion kinase 1 (Homo sapiens) (UniProt Q05397). The experiment in a line: Inhibition of recombinant human GST-tagged full length FAK expressed in baculovirus expression system using Tyr 07 as substrate at 0.1 uM incubated for 60 mins by Z'-Lyte assay relative to control.
Data set [12] has as its target High affinity nerve growth factor receptor (Homo sapiens) (UniProt P04629). The experiment in a line: Inhibition of recombinant human His-tagged TRKA (441 to 796 residues) expressed in baculovirus expression system using Tyr 01 as substrate at 0.1 uM incubated for 60 mins by Z'-Lyte assay relative to control.
In data set [13] the target is T1, Serine/threonine-protein kinase TAO2 (Homo sapiens) (UniProt Q9UL54).
T1 sequence (whole entry): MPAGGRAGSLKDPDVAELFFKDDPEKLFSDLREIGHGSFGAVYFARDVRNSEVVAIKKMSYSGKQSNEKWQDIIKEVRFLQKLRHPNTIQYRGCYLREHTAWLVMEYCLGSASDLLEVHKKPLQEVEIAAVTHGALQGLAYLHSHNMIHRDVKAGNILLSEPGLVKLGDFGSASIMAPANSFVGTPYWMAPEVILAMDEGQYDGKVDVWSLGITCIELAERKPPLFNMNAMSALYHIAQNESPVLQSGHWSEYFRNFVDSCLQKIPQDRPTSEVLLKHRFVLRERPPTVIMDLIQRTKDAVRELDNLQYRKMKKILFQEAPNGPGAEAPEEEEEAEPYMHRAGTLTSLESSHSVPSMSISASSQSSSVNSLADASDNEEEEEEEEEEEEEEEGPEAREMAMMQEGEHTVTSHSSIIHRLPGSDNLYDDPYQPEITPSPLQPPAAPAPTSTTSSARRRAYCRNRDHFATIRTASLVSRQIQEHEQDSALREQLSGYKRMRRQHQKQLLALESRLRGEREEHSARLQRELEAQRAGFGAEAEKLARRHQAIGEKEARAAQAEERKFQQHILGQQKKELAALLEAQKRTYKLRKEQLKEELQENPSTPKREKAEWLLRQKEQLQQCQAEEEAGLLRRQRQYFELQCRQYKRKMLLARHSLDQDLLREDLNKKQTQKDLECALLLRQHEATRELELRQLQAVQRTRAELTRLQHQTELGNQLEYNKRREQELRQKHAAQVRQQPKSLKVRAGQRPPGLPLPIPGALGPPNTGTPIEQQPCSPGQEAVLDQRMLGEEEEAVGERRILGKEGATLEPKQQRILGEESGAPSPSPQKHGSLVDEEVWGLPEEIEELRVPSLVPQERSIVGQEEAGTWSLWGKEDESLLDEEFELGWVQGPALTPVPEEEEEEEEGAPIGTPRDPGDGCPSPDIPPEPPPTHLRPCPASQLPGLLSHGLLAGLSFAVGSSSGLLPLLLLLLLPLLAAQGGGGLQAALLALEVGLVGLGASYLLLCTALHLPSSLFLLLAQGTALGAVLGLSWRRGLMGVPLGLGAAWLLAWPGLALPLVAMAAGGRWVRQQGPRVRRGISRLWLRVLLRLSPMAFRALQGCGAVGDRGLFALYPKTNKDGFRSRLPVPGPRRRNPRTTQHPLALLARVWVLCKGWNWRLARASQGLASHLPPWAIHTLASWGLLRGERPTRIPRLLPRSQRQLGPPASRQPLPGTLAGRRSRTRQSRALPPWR
The experiment in a line: Inhibition of recombinant human GST-tagged TAO2 (1 to 314 residues) expressed in baculovirus expression system using Ser/Thr 07 as substrate at 0.1 uM incubated for 60 mins by Z'-Lyte assay relative to control.

In data set [14] the target is Glycogen synthase kinase-3 beta (Homo sapiens) (UniProt P49841). The experiment in a line: Inhibition of recombinant human N-terminal GST-tagged full length GSK3beta expressed in baculovirus expression system using Ser/Thr 09 as substrate at 0.1 uM incubated for 60 mins by Z'-Lyte assay relative to control.
The target of data set [15] is Mitogen-activated protein kinase 9 (Homo sapiens) (UniProt P45984). Briefly: Inhibition of recombinant human His-tagged full length JNK2 expressed in baculovirus expression system using Ser/Thr 04 as substrate at 0.1 uM incubated for 60 mins by Z'-lyte assay relative to control.
Data set [16] can be described thus: in vitro. Particulars: dog, MDCK.
Description: Apparent permeability across apical to basolateral side in MDCK cells at 10 uM incubated upto 180 mins by LC/MS-MS analysis

Sequence of Non-receptor tyrosine-protein kinase TYK2 (Homo sapiens) (P29597 whole entry, the tested form may be a part): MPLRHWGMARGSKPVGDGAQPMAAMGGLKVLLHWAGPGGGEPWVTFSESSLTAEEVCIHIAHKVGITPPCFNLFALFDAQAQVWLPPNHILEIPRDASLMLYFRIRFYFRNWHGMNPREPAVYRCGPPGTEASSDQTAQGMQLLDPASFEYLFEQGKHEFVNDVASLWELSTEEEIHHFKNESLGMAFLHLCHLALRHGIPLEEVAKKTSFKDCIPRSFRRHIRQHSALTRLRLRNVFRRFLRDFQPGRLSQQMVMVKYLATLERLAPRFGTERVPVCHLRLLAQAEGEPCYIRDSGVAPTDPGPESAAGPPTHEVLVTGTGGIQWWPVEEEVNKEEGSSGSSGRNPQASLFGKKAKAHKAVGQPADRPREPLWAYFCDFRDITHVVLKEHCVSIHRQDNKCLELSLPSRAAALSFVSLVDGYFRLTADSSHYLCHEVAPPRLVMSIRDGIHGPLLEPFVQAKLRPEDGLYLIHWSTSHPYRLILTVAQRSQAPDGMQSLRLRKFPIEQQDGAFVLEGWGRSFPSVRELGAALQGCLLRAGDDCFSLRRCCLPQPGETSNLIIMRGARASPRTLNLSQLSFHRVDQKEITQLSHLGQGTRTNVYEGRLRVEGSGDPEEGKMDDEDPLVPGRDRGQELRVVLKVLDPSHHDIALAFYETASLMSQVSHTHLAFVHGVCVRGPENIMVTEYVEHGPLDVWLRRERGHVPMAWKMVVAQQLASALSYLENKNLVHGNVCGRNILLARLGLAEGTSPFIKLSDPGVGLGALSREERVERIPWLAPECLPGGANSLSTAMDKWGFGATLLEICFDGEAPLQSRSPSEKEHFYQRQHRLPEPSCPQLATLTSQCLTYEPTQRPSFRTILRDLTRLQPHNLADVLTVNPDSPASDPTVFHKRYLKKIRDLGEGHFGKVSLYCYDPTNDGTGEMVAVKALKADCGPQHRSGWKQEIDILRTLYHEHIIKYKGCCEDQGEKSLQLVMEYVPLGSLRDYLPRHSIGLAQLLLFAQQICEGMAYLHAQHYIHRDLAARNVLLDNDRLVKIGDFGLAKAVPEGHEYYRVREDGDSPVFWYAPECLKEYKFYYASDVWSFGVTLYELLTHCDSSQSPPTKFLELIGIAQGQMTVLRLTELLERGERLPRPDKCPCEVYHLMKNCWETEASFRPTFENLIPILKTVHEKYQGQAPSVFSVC
Sequence of Serine/threonine-protein kinase B-raf (Homo sapiens) (P15056 whole entry, the tested form may be a part): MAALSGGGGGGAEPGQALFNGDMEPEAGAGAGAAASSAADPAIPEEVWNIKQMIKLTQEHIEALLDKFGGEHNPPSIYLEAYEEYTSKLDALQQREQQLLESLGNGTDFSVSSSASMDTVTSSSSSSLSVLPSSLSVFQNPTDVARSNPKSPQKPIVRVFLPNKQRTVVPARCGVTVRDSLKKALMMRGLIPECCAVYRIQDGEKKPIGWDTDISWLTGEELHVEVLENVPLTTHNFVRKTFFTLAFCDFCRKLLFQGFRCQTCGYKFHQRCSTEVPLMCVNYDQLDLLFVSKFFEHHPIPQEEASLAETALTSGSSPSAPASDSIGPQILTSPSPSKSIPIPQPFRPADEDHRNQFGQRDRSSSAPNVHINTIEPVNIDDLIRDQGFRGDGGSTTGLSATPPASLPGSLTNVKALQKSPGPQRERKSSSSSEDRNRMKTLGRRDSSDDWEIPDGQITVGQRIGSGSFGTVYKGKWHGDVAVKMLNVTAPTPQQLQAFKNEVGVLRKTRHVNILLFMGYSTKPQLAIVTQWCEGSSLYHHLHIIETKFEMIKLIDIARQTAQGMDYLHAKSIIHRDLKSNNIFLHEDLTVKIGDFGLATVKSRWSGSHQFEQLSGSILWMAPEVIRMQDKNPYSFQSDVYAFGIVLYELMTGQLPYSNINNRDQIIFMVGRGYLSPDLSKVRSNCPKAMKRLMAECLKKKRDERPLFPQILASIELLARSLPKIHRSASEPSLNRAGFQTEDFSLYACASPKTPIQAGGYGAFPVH
Sequence of Mitogen-activated protein kinase 9 (Homo sapiens) (P45984 whole entry, looked up): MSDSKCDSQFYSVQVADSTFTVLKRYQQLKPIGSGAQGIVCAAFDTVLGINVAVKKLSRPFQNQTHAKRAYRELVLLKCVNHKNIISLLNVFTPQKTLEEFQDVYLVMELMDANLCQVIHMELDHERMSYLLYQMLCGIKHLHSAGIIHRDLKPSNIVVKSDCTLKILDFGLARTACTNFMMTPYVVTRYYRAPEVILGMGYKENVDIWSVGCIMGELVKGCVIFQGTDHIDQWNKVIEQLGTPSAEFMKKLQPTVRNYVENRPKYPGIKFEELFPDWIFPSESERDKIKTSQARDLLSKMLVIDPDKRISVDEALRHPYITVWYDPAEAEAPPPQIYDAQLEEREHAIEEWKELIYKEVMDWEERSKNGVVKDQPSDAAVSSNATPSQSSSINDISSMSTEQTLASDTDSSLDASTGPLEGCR
Sequence of Glycogen synthase kinase-3 beta (Homo sapiens) (P49841 whole entry, looked up): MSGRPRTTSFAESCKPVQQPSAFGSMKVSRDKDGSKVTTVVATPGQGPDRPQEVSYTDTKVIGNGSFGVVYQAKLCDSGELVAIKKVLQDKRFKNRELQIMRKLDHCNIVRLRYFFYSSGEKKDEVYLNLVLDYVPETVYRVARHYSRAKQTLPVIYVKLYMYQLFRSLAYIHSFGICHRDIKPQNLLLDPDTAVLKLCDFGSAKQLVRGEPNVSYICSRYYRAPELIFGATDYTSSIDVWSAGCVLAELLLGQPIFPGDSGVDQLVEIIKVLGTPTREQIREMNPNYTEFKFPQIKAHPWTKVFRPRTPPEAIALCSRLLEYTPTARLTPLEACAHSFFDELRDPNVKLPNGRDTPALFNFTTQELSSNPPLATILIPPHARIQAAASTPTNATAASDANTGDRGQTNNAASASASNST
Sequence of High affinity nerve growth factor receptor (Homo sapiens) (P04629 33-796 limits assumed): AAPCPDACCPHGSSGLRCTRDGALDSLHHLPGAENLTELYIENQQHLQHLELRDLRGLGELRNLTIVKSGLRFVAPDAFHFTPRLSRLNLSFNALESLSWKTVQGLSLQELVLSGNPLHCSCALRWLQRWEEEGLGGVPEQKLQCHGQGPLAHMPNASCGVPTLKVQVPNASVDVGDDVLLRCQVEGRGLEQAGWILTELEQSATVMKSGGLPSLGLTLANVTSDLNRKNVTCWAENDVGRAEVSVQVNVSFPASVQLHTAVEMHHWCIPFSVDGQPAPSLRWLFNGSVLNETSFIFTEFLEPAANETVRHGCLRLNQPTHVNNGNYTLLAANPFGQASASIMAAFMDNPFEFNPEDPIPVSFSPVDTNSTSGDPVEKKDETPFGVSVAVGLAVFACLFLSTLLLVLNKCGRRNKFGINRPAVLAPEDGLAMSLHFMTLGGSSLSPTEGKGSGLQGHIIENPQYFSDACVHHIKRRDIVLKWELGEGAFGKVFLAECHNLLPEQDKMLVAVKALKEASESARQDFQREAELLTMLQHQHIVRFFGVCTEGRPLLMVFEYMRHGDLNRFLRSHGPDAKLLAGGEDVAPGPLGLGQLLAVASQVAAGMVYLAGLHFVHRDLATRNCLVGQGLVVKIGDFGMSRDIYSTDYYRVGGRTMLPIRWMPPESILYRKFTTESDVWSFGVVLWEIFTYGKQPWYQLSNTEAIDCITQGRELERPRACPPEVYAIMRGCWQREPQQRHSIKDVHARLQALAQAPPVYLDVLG
Sequence of Receptor tyrosine-protein kinase erbB-2 (Homo sapiens) (P04626 whole entry, the tested form may be a part): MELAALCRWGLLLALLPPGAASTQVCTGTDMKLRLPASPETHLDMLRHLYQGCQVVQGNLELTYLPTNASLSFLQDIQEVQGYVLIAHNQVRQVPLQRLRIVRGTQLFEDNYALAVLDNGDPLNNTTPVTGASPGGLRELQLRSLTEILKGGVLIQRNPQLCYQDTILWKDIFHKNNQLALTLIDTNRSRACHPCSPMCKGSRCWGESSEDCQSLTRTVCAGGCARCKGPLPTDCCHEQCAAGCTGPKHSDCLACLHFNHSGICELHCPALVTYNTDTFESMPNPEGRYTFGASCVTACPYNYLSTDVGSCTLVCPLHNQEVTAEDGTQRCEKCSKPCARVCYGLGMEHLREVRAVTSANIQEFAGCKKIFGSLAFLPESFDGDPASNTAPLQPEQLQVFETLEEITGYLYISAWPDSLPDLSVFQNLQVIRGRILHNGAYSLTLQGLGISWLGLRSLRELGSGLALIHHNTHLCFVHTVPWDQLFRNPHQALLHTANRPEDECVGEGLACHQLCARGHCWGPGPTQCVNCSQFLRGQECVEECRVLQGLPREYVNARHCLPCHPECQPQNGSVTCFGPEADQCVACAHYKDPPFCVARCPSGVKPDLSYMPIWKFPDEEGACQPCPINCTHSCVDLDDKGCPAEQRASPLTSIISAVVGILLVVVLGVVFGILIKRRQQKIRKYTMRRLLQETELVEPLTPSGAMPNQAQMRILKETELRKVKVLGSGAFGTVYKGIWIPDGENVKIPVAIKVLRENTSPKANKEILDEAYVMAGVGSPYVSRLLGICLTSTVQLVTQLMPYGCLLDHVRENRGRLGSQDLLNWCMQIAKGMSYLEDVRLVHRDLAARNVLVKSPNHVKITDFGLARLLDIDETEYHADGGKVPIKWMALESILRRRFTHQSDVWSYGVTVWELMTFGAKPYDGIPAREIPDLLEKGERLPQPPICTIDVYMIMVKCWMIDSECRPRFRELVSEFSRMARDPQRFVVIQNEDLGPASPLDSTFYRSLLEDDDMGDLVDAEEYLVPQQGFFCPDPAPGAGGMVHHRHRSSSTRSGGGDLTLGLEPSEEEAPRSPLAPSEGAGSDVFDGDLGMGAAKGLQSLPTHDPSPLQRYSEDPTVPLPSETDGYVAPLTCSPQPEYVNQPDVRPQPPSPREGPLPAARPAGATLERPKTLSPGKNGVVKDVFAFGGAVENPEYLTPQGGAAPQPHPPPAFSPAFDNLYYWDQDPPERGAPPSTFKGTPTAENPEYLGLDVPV

Turning to `O=C(Nc1c[nH]nc1-c1cc(Cl)ccc1OC(F)F)c1cnn2cccnc12`, in data set [1], the inhibition at 1 h, 0.1 µM came to 87%. Besides, in data set [2], the Ratio IC50 came to 15. Also, the inhibition in data set [3] was 1%; in [4] it was 1%; in data set [5] it was 2%; in data set [6], -4%; in data set [8] it was 8%; in [9], 12%. The inhibition in data set [10] is 100%; in data set [11], 14%; in data set [12], 59%; in data set [13] it was 1%; in [14], 7%; in data set [15] it was 16%. This compound also yielded an IC50 in [7] of 5.2 nM. The Papp A→B at 3 h, 10 µM in [16] stood at 14 ×10⁻⁶ cm/s.

Turning to `O=C(Nc1c[nH]nc1-c1cc2ccccc2cc1OC(F)F)c1cnn2cccnc12`, the inhibition at 1 h, 0.1 µM in [1] turned out to be 31%. The Ratio IC50 in data set [2] amounted to 83. Moreover, the inhibition in data set [3] is -6%; in data set [4], 4%; in [5] it was 0%; in data set [6], 3%; in data set [8], 15%; in data set [9] it was -7%. Also, the inhibition in data set [10] turned out to be 95%; in data set [11], 20%; in data set [12], 23%; in data set [13], 8%; in data set [14], 7%; in data set [15], 0%. In [7], this compound gave an IC50 of 6.4 nM. This compound also gave a Papp A→B at 3 h, 10 µM in data set [16] of 13 ×10⁻⁶ cm/s.

With `Cn1cc(NC(=O)c2cnn3cccnc23)c(-c2cc(Cl)ccc2OC(F)F)n1`, the inhibition at 1 h, 0.1 µM in data set [1] turned out to be 61%. Further, the Ratio IC50 in data set [2] was found to be 47. The inhibition in data set [3] is -1%; in data set [4], 5%; in data set [5] it was 11%; in data set [6] it was 4%; in [8] it was 6%; in data set [9], 2%. Besides, the inhibition in data set [10] is 98%; in [11] it was 15%; in data set [12] it was 44%; in data set [13] it was 4%; in data set [14] it was -3%; in [15], -2%. In data set [7], this compound came in with an IC50 of 4.7 nM. This compound displayed a Papp A→B at 3 h, 10 µM in data set [16] of 14 ×10⁻⁶ cm/s.

Values taken from ChEMBL document CHEMBL4665643 (Bioorg Med Chem Lett, 2019).
